# Measured values: patent US8932597B2 (priority 2008, dated 2015)
# System: anti-M2 human monoclonal antibody Z3G1
# Format: binding
Substance,Signal (peptides that show specific binding to Z3G1),Signal (peptides that bind to Z3G1),Binding to Z3G1 (in words)
1550 (SLLCEVGCLLTEV; epitope peptide) [compound 1550],1997,,
1482 (CETPIRNEWGLLTEVETPICEVETPIRNE; epitope peptide; MISC_FEATURE (1)..(1): C is an attachment site for a CLIP; MISC_FEATURE (10)..(10): G is an attachment site for a CLIP; MISC_FEATURE (11)..(11): L is an attachment site for a CLIP; MISC_FEATURE (29)..(29): E is an attachment site for a CLIP) [compound 1482],,1648,
1286 (MSLLKEVETPIRNEWGCRCN; epitope peptide) [compound 1286],,2825,
1588 (SLLREVETPIRNEWGCRCNDSSD; epitope peptide) [compound 1588],2286,,
1556 (CSCLCEVGSLLCEV; epitope peptide) [compound 1556],1583,,
1474 (CVETPIRNEWSLLTEVETPCEVETPIRNE; epitope peptide; MISC_FEATURE (1)..(1): C is an attachment site for a CLIP; MISC_FEATURE (10)..(10): W is an attachment site for a CLIP; MISC_FEATURE (11)..(11): S is an attachment site for a CLIP; MISC_FEATURE (29)..(29): E is an attachment site for a CLIP) [compound 1474],,1986,
1360 (CLLCEVETPIRNE; epitope peptide) [compound 1360],,2314,
1554 (SLLCEVGSLLCEV; epitope peptide) [compound 1554],2399,,
1269 (MSVLTEVETPIRNEWGCRCN; epitope peptide) [compound 1269],,2111,
1575 (WLLTEVETPIRNEWGCRCNDSSD; epitope peptide) [compound 1575],2180,,
1373 (SLLCEVETPIRNEWGC; epitope peptide) [compound 1373],,2281,
1351 (MSLLCEVGMSCLCEC; epitope peptide) [compound 1351],,2492,
1381 (CLLTEVETPCRNEWG; epitope peptide) [compound 1381],,2074,
1458 (CLTEVETPIRLLTEVETPICTEVETPIRN; epitope peptide; MISC_FEATURE (1)..(1): C is an attachment site for a CLIP; MISC_FEATURE (10)..(10): R is an attachment site for a CLIP; MISC_FEATURE (11)..(11): L is an attachment site for a CLIP; MISC_FEATURE (29)..(29): N is an attachment site for a CLIP) [compound 1458],,1756,
1323 (MCLLTEVCTPIRNE; epitope peptide) [compound 1323],,1407,
1324 (MCLLCEVETPIRNE; epitope peptide) [compound 1324],,2038,
1346 (MCLLTEVGMSLLTCV; epitope peptide) [compound 1346],,1098,
1302 (MSLLTEVGTPIRNEWGCRCN; epitope peptide) [compound 1302],,2789,
1369 (SLLTEVETPCRCE; epitope peptide) [compound 1369],,1546,
1573 (QLLTEVETPIRNEWGCRCNDSSD; epitope peptide) [compound 1573],1627,,
1367 (SLLCEVCTPIRNE; epitope peptide) [compound 1367],,2283,
1572 (PLLTEVETPIRNEWGCRCNDSSD; epitope peptide) [compound 1572],1641,,
1578 (SLLAEVETPIRNEWGCRCNDSSD; epitope peptide) [compound 1578],2356,,
1399 (SLLTEVETPIRNECG; epitope peptide) [compound 1399],,1545,

Substance,Signal (peptides that show specific binding to Z3G1),Signal (peptides that bind to Z3G1),Binding to Z3G1 (in words)
1495 (CTEVETPIRNLLTEVETPICVETPIRNEW; epitope peptide; MISC_FEATURE (1)..(1): C is an attachment site for a CLIP; MISC_FEATURE (10)..(10): N is an attachment site for a CLIP; MISC_FEATURE (11)..(11): L is an attachment site for a CLIP; MISC_FEATURE (29)..(29): W is an attachment site for a CLIP) [compound 1495],,2088,
1480 (CEVETPIRNELLTEVETPICEVETPIRNE; epitope peptide; MISC_FEATURE (1)..(1): C is an attachment site for a CLIP; MISC_FEATURE (10)..(10): E is an attachment site for a CLIP; MISC_FEATURE (11)..(11): L is an attachment site for a CLIP; MISC_FEATURE (29)..(29): E is an attachment site for a CLIP) [compound 1480],,1394,
1301 (MSLLTEVFTPIRNEWGCRCN; epitope peptide) [compound 1301],,1858,
634 (SLLTEVETPIRNEWGCRANDSSD; epitope peptide) [compound 634],2265,,
1307 (MSLLTEVNTPIRNEWGCRCN; epitope peptide) [compound 1307],,2807,
1327 (MSLLCEVETPICNE; epitope peptide) [compound 1327],,2704,
1565 (FLLTEVETPIRNEWGCRCNDSSD; epitope peptide) [compound 1565],1018,,
1339 (MCLLTEVGMSLLCEV; epitope peptide) [compound 1339],,2234,
MSLLTEVETPIRNEWGCRCN (epitope peptide) [SEQ ID NO: 1149],,,very best specific binder
1444 (CEVETPIRNELLTEVETPICLTEVETPIR; epitope peptide; MISC_FEATURE (1)..(1): C is an attachment site for a CLIP; MISC_FEATURE (10)..(10): E is an attachment site for a CLIP; MISC_FEATURE (11)..(11): L is an attachment site for a CLIP; MISC_FEATURE (29)..(29): R is an attachment site for a CLIP) [compound 1444],,2000,
1553 (CLLTEVGSLLCEV; epitope peptide) [compound 1553],2168,,
1460 (CEVETPIRNELLTEVETPICTEVETPIRN; epitope peptide; MISC_FEATURE (1)..(1): C is an attachment site for a CLIP; MISC_FEATURE (10)..(10): E is an attachment site for a CLIP; MISC_FEATURE (11)..(11): L is an attachment site for a CLIP; MISC_FEATURE (29)..(29): N is an attachment site for a CLIP) [compound 1460],,1620,
1475 (CETPIRNEWGSLLTEVETPCEVETPIRNE; epitope peptide; MISC_FEATURE (1)..(1): C is an attachment site for a CLIP; MISC_FEATURE (10)..(10): G is an attachment site for a CLIP; MISC_FEATURE (11)..(11): S is an attachment site for a CLIP; MISC_FEATURE (29)..(29): E is an attachment site for a CLIP) [compound 1475],,2642,
1389 (SLLCEVETPIRNCWG; epitope peptide) [compound 1389],,2789,
1552 (SLLCEVGSLCTEV; epitope peptide) [compound 1552],2722,,
1283 (MSLLGEVETPIRNEWGCRCN; epitope peptide) [compound 1283],,2717,
1349 (MSLLCEVGCSCLCEV; epitope peptide) [compound 1349],,2586,
1325 (MSLLCEVETPIRNC; epitope peptide) [compound 1325],,2823,
1558 (SCLCECGSLLCEV; epitope peptide) [compound 1558],1747,,
1498 (CETPIRNEWGLLTEVETPICVETPIRNEW; epitope peptide; MISC_FEATURE (1)..(1): C is an attachment site for a CLIP; MISC_FEATURE (10)..(10): G is an attachment site for a CLIP; MISC_FEATURE (11)..(11): L is an attachment site for a CLIP; MISC_FEATURE (29)..(29): W is an attachment site for a CLIP) [compound 1498],,1817,
1274 (MSLNTEVETPIRNEWGCRCN; epitope peptide) [compound 1274],,2787,
1560 (SLLCEVGCSCLCEV; epitope peptide) [compound 1560],2112,,
1303 (MSLLTEVHTPIRNEWGCRCN; epitope peptide) [compound 1303],,2751,
1574 (RLLTEVETPIRNEWGCRCNDSSD; epitope peptide) [compound 1574],1338,,
